Results: US20250002450A1, “CATIONIC STEROID COMPOUNDS, METHOD OF OBTAINING THEREOF, FORMULATIONS COMPRISING THEREOF AND THEIR USES” (UNIVERSIDADE DO PORTO, priority 2021, published 2025)
≈ marks a conversion by molar mass, not a printed value. Like-named read-outs stand apart in the source and are kept apart here.

Experiments:
Experiment in all cases: Antifungal MIC/MLC (broth microdilution)
Type in all cases: cell-based, Candida albicans
[1] = system: C. albicans H37
Description: (§1) Twenty-three fungal strains were used in this study, including reference strains and clinical isolates of yeasts and filamentous fungi. Yeast strains included reference strains (ATCC—American Type Culture Collection and CECT—Colección Española de Cultivos Tipo) and clinical isolates: C. albicans ATCC 10231, Candida krusei ATCC 6258, C. albicans H37, C. albicans FF172, C. albicans FF176, C. albicans DSY294, C. albicans DSY296, C. glabrata DSY562, C. glabrata DSY565 and Cryptococcus neoformans CECT 1078. Filamentous fungi included Aspergillus fumigatus ATCC 240305, A. fumigatus C111, A. niger ATCC 16404, A. flavus F44, Fusarium solani FF125, F. oxysporum FF115, and dermatophytes Trichophyton rubrum FF5, T. mentagrophytes FF7, Microscoporum canis FF1 and Nannizzia gypsea FF3 (formerly Microsporum gypseum) and a species of genera Mucor, Lichetheimia and Scedosporium. Saprolegnia parasitica CBS 223.65, a reference strain of an oomycete fish pathogen, was also included. All microorganisms were kept in Sabouraud Dextrose Broth (SDB: BioMérieux, Marcy L'Etoile, France) plus glycerol (20%) at −80° C. The strains were kept in Sabouraud Dextrose Agar (SDA: BioMérieux, Marcy L'Etoile, France) slants and were sub-cultured in SDA before each test. S. parasitica was kept in Corn Meal Agar plates (CMA: BBL™ Corn Meal Agar, BD, Le Pont-de-Claix, France) and was sub-cultured in CMA before each experiment. C. albicans H37, was kindly provided by Cidilia Pina Vaz (CHSJ, Porto, Portugal) and C. albicans DSY294, C. albicans DSY296, C. glabrata DSY562, C. glabrata DSY565 were kindly provided by D. Sanglard (University of Lausanne, Switzerland). A stock solution of compound 1 (10 mg/mL), was prepared in dimethyl sulfoxide (DMSO 99%: Alfa Aesar, Kandel, Germany), kept at −20 degrees C., and freshly diluted in the appropriate culture media before each assay. In all experiments, in-test concentrations of DMSO were kept below 2%.
(§2) Antifungal activity was evaluated by determining the MIC of compound 1 by the broth microdilution method, according to CLSI guidelines (reference documents M27-A3 for yeasts and M38-A2 for filamentous fungi). Briefly, cell or spore suspensions were prepared in RPMI-1640 broth medium (Biochrom, Berlin, Germany) buffered with 3-(N-morpholino)propane sulfonic acid (MOPS) (Sigma-Aldrich, St. Louis, MO, USA) (henceforth referred to as RPMI) from fresh cultures of the different strains of fungi. For yeasts, the inoculum was adjusted to 0.5-2.5×10^3 CFU/mL. For filamentous fungi, the inoculum was adjusted to 1-3×10^3 CFU/mL for dermatophytes, and 0.4-5×10^4 CFU/mL for all other strains. […] Sterility and growth controls were included in each assay. The 96-well flat-bottomed untreated polystyrene microtiter plates which were incubated for 48 h at 35° C., with the exception of Lichetheimia spp. which was incubated at 25° C. for 48 h, and the dermatophyte strains, which incubated for 5-7 days at 25° C. […] The minimal lethal concentration (MLC) was determined by spreading 20 μL of culture collected from wells showing no visible growth on SDA plates. The MLC was determined as the lowest concentration showing complete growth inhibition after 48 h at 35 degrees C., 48 h at 25 degrees C.

[2] = system: C. albicans DSY296
Description: as §1, §2

[3] = system: C. albicans DSY294
Description: as §1, §2

[4] = system: C. albicans FF176
Description: as §1, §2

[5] = C. albicans H37, resistant to fluconazole or azoles
[6] = C. albicans DSY296, resistant to fluconazole or azoles
[7] = C. albicans FF176, resistant to fluconazole or azoles

Molecule `OC(Cn1cncn1)(Cn1cncn1)c1ccc(F)cc1F` [Fluconazole, reference compound] has an MIC ([1]; Candida albicans, H37, read-out: MIC) of at least 128 µg/mL, an MIC ([2]; Candida albicans, DSY296, read-out: MIC) of 64 µg/mL (≈ 209 µM) and an MIC ([3]; Candida albicans, DSY294) of 0.125 µg/mL (≈ 0.408 µM). It also gave an MIC ([4]; Candida albicans, FF176, read-out: MIC) of 32 µg/mL (≈ 104 µM).

`C[C@H](CCC(=O)NCCN)[C@H]1CC[C@H]2[C@@H]3CC[C@@H]4C[C@H](O)CC[C@]4(C)[C@H]3C[C@H](O)[C@]12C` [Compound 1, (R)—N-(2-aminoethyl)-4-((3R,5R,8R,9S,10S,12S,13R,14S,17R)-3,12-dihydroxy-10,13-dimethylhexadecahydro-1H-cyclopenta[a]phenanthren-17-yl) pentanamida] was tested, and the MIC [1, 5] was 64 µg/mL (≈ 147 µM), the MLC [1, 5] was 64 µg/mL (≈ 147 µM) and the MIC [2, 6] was 64 µg/mL (≈ 147 µM). For the same molecule, the MLC [2, 6] was 64 µg/mL (≈ 147 µM), the MIC ([3]; C. albicans DSY294) was 64 µg/mL (≈ 147 µM) and the MLC ([3]; C. albicans DSY294) was 64 µg/mL (≈ 147 µM). For the same molecule, the MIC [4, 7] was 32 µg/mL (≈ 73.6 µM) and the MLC [4, 7] was 32 µg/mL (≈ 73.6 µM).
